# From EP0908457B1, “3-(1,2-benzisothiazol- and isoxazol-5-Y1)-2,4(1H,3H)-pyrimidinedione or thione and 3-(1,2-benzisothiazol- and isoxazol-5-y1)-4(3H)-pyrimidinone or thione herbicidal agents” (BASF AKTIENGESELLSCHAFT, priority 1997, dated 1999)
# How the values were obtained:
# [1] = system: Monochoria vaginalis, Presl.; assay: Preemergence weed control under flooded paddy conditions, MOOVA (Monochoria); format: in vivo; on herbicidal effect rating, MOOVA: meaning of each grade not given here
# Cyperus iria [2] = assay: Postemergence weed control under flooded paddy conditions, CYPIR (Rice Flatsedge); format: in vivo; conditions: rated three to four weeks after treatment
# Cyperus iria [3] = assay: Preemergence weed control under flooded paddy conditions, CYPIR (Rice Flatsedge); format: in vivo; on herbicidal effect rating, CYPIR: meaning of each grade not given here
# [4] = system: Echinochloa oryzoides (Ard.) Fritsch.; assay: Preemergence weed control under flooded paddy conditions, ECHORC (Watergrass (Calif.)); format: in vivo; on herbicidal effect rating, ECHORC: meaning of each grade not given here
# Sagittaria pygmaea, L. [5] = assay: Postemergence weed control under flooded paddy conditions, SAGPY (Arrowhead (Pygmaea)); format: in vivo; conditions: rated three to four weeks after treatment
# [6] = system: Echinochloa oryzoides (Ard.) Fritsch.; assay: Postemergence weed control under flooded paddy conditions, ECHORC (Watergrass (Calif.)); format: in vivo; conditions: rated three to four weeks after treatment
# [7] = system: Monochoria vaginalis, Presl.; assay: Postemergence weed control under flooded paddy conditions, MOOVA (Monochoria); format: in vivo; conditions: rated three to four weeks after treatment
# [8] = system: Oryza sativa, (L.) Tebonnet; assay: Rice tolerance to post-transplant applications under flooded paddy conditions (Example 188), ORYSAT (Rice, Tebonnet); conditions: rated three to four weeks after treatment
# [9] = system: Cyperus serotinus, Rottb.; assay: Postemergence weed control under flooded paddy conditions, CYPSE (Flatsedge); format: in vivo; conditions: rated three to four weeks after treatment
# Sagittaria pygmaea, L. [10] = assay: Preemergence weed control under flooded paddy conditions, SAGPY (Arrowhead (Pygmaea)); format: in vivo; conditions: flooded paddy, rated three to four weeks after treatment; on herbicidal effect rating, SAGPY: meaning of each grade not given here
# [11] = system: Oryza sativa, (L.) Tebonnet; assay: Rice tolerance to post-transplant applications under flooded paddy conditions (Example 187), ORYSAT (Rice, Tebonnet); conditions: rated three to four weeks after treatment; on herbicidal effect rating ORYSAT: meaning of each grade not given here; on herbicidal effect rating, ORYSAT: meaning of each grade not given here
# [12] = system: Cyperus serotinus, Rottb.; assay: Preemergence weed control under flooded paddy conditions, CYPSE (Flatsedge); format: in vivo; conditions: rated three to four weeks after treatment; on herbicidal effect rating, CYPSE: meaning of each grade not given here
# [13] = Rate 0.0320 kg/ha, preemergence
# [14] = Rate 0.0620 kg/ha, preemergence
# [15] = Rate 0.1250 kg/ha, preemergence
# [16] = Rate 0.2500 kg/ha, preemergence
# [17] = Rate 0.0320 kg/ha, preemergence, flooded paddy, rated three to four weeks after treatment
# [18] = Rate 0.0620 kg/ha, preemergence, flooded paddy, rated three to four weeks after treatment
# [19] = Rate 0.1250 kg/ha, preemergence, flooded paddy, rated three to four weeks after treatment
# [20] = Rate 0.2500 kg/ha, preemergence, flooded paddy, rated three to four weeks after treatment
# [21] = Rate 0.5000 kg/ha, preemergence
# [22] = Rate 0.5000 kg/ha, preemergence, flooded paddy, rated three to four weeks after treatment
# [23] = Rate 0.0320 kg/ha, preemergence weeds
# [24] = Rate 0.0620 kg/ha, preemergence weeds
# [25] = Rate 0.1250 kg/ha, preemergence weeds
# [26] = Rate 0.2500 kg/ha, preemergence weeds
# [27] = Rate 0.0320 kg/ha, preemergence weeds, flooded paddy, rated three to four weeks after treatment
# [28] = Rate 0.0620 kg/ha, preemergence weeds, flooded paddy, rated three to four weeks after treatment
# [29] = Rate 0.1250 kg/ha, preemergence weeds, flooded paddy, rated three to four weeks after treatment
# [30] = Rate 0.2500 kg/ha, preemergence weeds, flooded paddy, rated three to four weeks after treatment
smiles,measurement,setting,value
"COC(=O)C(C)Oc1ccc(C)cc1-c1nsc2ccc(-n3c(=O)cc(C(F)(F)F)n(C)c3=O)cc12 (stereo not drawn) [Example 3, Methyl 2-{{2-{5-[3,6-dihydro-3-methyl-4-(trifluoromethyl)-2,6-dioxo-1(2H)-pyrimidinyl]-1,2-benzisothiazol-3-yl}-p-tolyl}oxy}propionate]","herbicidal effect rating, MOOVA",[1]; in vivo,9.0
same,"herbicidal effect rating, CYPIR",Cyperus iria [2]; Rate 0.0313 kg/ha,9.0
same,"herbicidal effect rating, CYPIR",Cyperus iria [2]; Rate 0.0625 kg/ha,9.0
same,"herbicidal effect rating, CYPIR",Cyperus iria [2]; Rate 0.1250 kg/ha,9.0
same,"herbicidal effect rating, CYPIR",Cyperus iria [2]; Rate 0.2500 kg/ha,9.0
same,"herbicidal effect rating, CYPIR",Cyperus iria [2]; Rate 0.5000 kg/ha,9.0
same,"herbicidal effect rating, CYPIR",Cyperus iria [3]; in vivo,9.0
same,"herbicidal effect rating, ECHORC",[4]; in vivo,9.0
same,"herbicidal effect rating, SAGPY","Sagittaria pygmaea, L. [5]; Rate 0.0313 kg/ha",0.0
same,"herbicidal effect rating, SAGPY","Sagittaria pygmaea, L. [5]; Rate 0.0625 kg/ha",0.0
same,"herbicidal effect rating, SAGPY","Sagittaria pygmaea, L. [5]; Rate 0.1250 kg/ha",0.0
same,"herbicidal effect rating, SAGPY","Sagittaria pygmaea, L. [5]; Rate 0.2500 kg/ha",0.0
same,"herbicidal effect rating, SAGPY","Sagittaria pygmaea, L. [5]; Rate 0.5000 kg/ha",0.0
same,"herbicidal effect rating, ECHORC",[6]; Rate 0.0313 kg/ha,0.0
same,"herbicidal effect rating, ECHORC",[6]; Rate 0.0625 kg/ha,0.0
same,"herbicidal effect rating, ECHORC",[6]; Rate 0.1250 kg/ha,0.0
same,"herbicidal effect rating, ECHORC",[6]; Rate 0.2500 kg/ha,2.0
same,"herbicidal effect rating, ECHORC",[6]; Rate 0.5000 kg/ha,4.0
same,"herbicidal effect rating, MOOVA",[7]; Rate 0.0313 kg/ha,9.0
same,"herbicidal effect rating, MOOVA",[7]; Rate 0.0625 kg/ha,9.0
same,"herbicidal effect rating, MOOVA",[7]; Rate 0.1250 kg/ha,9.0
same,"herbicidal effect rating, MOOVA",[7]; Rate 0.2500 kg/ha,9.0
same,"herbicidal effect rating, MOOVA",[7]; Rate 0.5000 kg/ha,9.0
same,"herbicidal effect rating, ORYSAT (rice tolerance)",[8]; Rate 0.0313 kg/ha,2.0
same,"herbicidal effect rating, ORYSAT (rice tolerance)",[8]; Rate 0.0625 kg/ha,2.0
same,"herbicidal effect rating, ORYSAT (rice tolerance)",[8]; Rate 0.1250 kg/ha,3.0
same,"herbicidal effect rating, ORYSAT (rice tolerance)",[8]; Rate 0.2500 kg/ha,3.0
same,"herbicidal effect rating, ORYSAT (rice tolerance)",[8]; Rate 0.5000 kg/ha,3.0
same,"herbicidal effect rating, CYPSE",[9]; Rate 0.0313 kg/ha,0.0
same,"herbicidal effect rating, CYPSE",[9]; Rate 0.0625 kg/ha,0.0
same,"herbicidal effect rating, CYPSE",[9]; Rate 0.1250 kg/ha,0.0
same,"herbicidal effect rating, CYPSE",[9]; Rate 0.2500 kg/ha,0.0
same,"herbicidal effect rating, CYPSE",[9]; Rate 0.5000 kg/ha,0.0
"Cn1c(C(F)(F)F)cc(=O)n(-c2ccc3snc(C(=O)NS(=O)(=O)c4ccc5ccccc5c4)c3c2)c1=O [Example 357, 1,2-Benzisothiazole-3-carboxamide, 5-[3,6-dihydro-3-methyl-2,6-dioxo-4-(trifluoromethyl)-1(2H)-pyrimidinyl]-N-(2-naphthylsulfonyl)-]","herbicidal effect rating, SAGPY","Sagittaria pygmaea, L. [10]; [13]",0.0
same,"herbicidal effect rating, SAGPY","Sagittaria pygmaea, L. [10]; [14]",0.0
same,"herbicidal effect rating, SAGPY","Sagittaria pygmaea, L. [10]; [15]",0.0
same,"herbicidal effect rating, SAGPY","Sagittaria pygmaea, L. [10]; [16]",4.0
same,"herbicidal effect rating, MOOVA",[1]; [17],9.0
same,"herbicidal effect rating, MOOVA",[1]; [18],9.0
same,"herbicidal effect rating, MOOVA",[1]; [19],9.0
same,"herbicidal effect rating, MOOVA",[1]; [20],9.0
same,herbicidal effect rating ORYSAT,[11]; Rate 0.0320 kg/ha,2.0
same,herbicidal effect rating ORYSAT,[11]; Rate 0.0620 kg/ha,2.0
same,herbicidal effect rating ORYSAT,[11]; Rate 0.1250 kg/ha,2.0
same,herbicidal effect rating ORYSAT,[11]; Rate 0.2500 kg/ha,3.0
same,"herbicidal effect rating, CYPIR",Cyperus iria [3]; [17],0.0
same,"herbicidal effect rating, CYPIR",Cyperus iria [3]; [18],0.0
same,"herbicidal effect rating, CYPIR",Cyperus iria [3]; [19],2.0
same,"herbicidal effect rating, CYPIR",Cyperus iria [3]; [20],6.0
same,"herbicidal effect rating, ECHORC",[4]; [17],4.0
same,"herbicidal effect rating, ECHORC",[4]; [18],5.0
same,"herbicidal effect rating, ECHORC",[4]; [19],5.0
same,"herbicidal effect rating, ECHORC",[4]; [20],7.0
same,"herbicidal effect rating, CYPSE",[12]; [13],0.0
same,"herbicidal effect rating, CYPSE",[12]; [14],0.0
same,"herbicidal effect rating, CYPSE",[12]; [15],0.0
same,"herbicidal effect rating, CYPSE",[12]; [16],0.0
"COC(=O)COc1c(-c2nsc3ccc(-n4c(=O)cc(C(F)(F)F)n(C)c4=O)cc23)ccc(C)c1C [Example 274, Acetic acid, {{6-{5-[3,6-dihydro-3-methyl-2,6-dioxo-4-(trifluoromethyl)-1(2H)-pyrimidinyl]-1,2-benzisothiazol-3-yl}-2,3-xylyl}oxy}-, methyl ester]",SAGPY herbicidal effect rating,"Sagittaria pygmaea, L. [10]; [13]",0.0
same,SAGPY herbicidal effect rating,"Sagittaria pygmaea, L. [10]; [14]",0.0
same,SAGPY herbicidal effect rating,"Sagittaria pygmaea, L. [10]; [15]",4.0
same,SAGPY herbicidal effect rating,"Sagittaria pygmaea, L. [10]; [16]",9.0
same,SAGPY herbicidal effect rating,"Sagittaria pygmaea, L. [10]; [21]",4.0
same,MOOVA herbicidal effect rating,[1]; [17],9.0
same,MOOVA herbicidal effect rating,[1]; [18],9.0
same,MOOVA herbicidal effect rating,[1]; [19],9.0
same,MOOVA herbicidal effect rating,[1]; [20],9.0
same,MOOVA herbicidal effect rating,[1]; [22],9.0
same,ORYSAT herbicidal effect rating,[11]; Rate 0.0320 kg/ha,2.0
same,ORYSAT herbicidal effect rating,[11]; Rate 0.0620 kg/ha,4.0
same,ORYSAT herbicidal effect rating,[11]; Rate 0.1250 kg/ha,4.0
same,ORYSAT herbicidal effect rating,[11]; Rate 0.2500 kg/ha,8.0
same,ORYSAT herbicidal effect rating,[11]; Rate 0.5000 kg/ha,7.0
same,CYPIR herbicidal effect rating,Cyperus iria [3]; [17],7.0
same,CYPIR herbicidal effect rating,Cyperus iria [3]; [18],8.0
same,CYPIR herbicidal effect rating,Cyperus iria [3]; [19],9.0
same,CYPIR herbicidal effect rating,Cyperus iria [3]; [20],9.0
same,CYPIR herbicidal effect rating,Cyperus iria [3]; [22],2.0
same,ECHORC herbicidal effect rating,[4]; [17],3.3
same,ECHORC herbicidal effect rating,[4]; [18],4.1
same,ECHORC herbicidal effect rating,[4]; [19],5.9
same,ECHORC herbicidal effect rating,[4]; [20],9.0
same,ECHORC herbicidal effect rating,[4]; [22],9.0
same,CYPSE herbicidal effect rating,[12]; [13],0.0
same,CYPSE herbicidal effect rating,[12]; [14],2.0
same,CYPSE herbicidal effect rating,[12]; [15],8.0
same,CYPSE herbicidal effect rating,[12]; [16],9.0
same,CYPSE herbicidal effect rating,[12]; [21],9.0
"CONC(=O)COc1ccc(C)cc1-c1nsc2ccc(-n3c(=O)cc(C(F)(F)F)n(C)c3=O)cc12 [Example 316, Acetamide, 2-{{2-{5-[3,6-dihydro-3-methyl-2,6-dioxo-4-(trifluoromethyl)-1(2H)-pyrimidinyl]-1,2-benzisothiazol-3-yl}-p-tolyl}oxy}-N-methoxy-]","herbicidal effect rating, SAGPY","Sagittaria pygmaea, L. [10]; [23]",0.0
same,"herbicidal effect rating, SAGPY","Sagittaria pygmaea, L. [10]; [24]",3.0
same,"herbicidal effect rating, SAGPY","Sagittaria pygmaea, L. [10]; [25]",1.0
same,"herbicidal effect rating, SAGPY","Sagittaria pygmaea, L. [10]; [26]",3.0
same,"herbicidal effect rating, MOOVA",[1]; [27],8.0
same,"herbicidal effect rating, MOOVA",[1]; [28],9.0
same,"herbicidal effect rating, MOOVA",[1]; [29],9.0
same,"herbicidal effect rating, MOOVA",[1]; [30],9.0
same,herbicidal effect rating ORYSAT,[11]; Rate 0.0320 kg/ha,4.5
same,herbicidal effect rating ORYSAT,[11]; Rate 0.0620 kg/ha,4.0
same,herbicidal effect rating ORYSAT,[11]; Rate 0.1250 kg/ha,4.5
same,herbicidal effect rating ORYSAT,[11]; Rate 0.2500 kg/ha,4.0
same,"herbicidal effect rating, CYPIR",Cyperus iria [3]; [27],8.5
same,"herbicidal effect rating, CYPIR",Cyperus iria [3]; [28],7.5
same,"herbicidal effect rating, CYPIR",Cyperus iria [3]; [29],7.5
same,"herbicidal effect rating, CYPIR",Cyperus iria [3]; [30],6.0
same,"herbicidal effect rating, ECHORC",[4]; [27],5.5
same,"herbicidal effect rating, ECHORC",[4]; [28],9.0
same,"herbicidal effect rating, ECHORC",[4]; [29],9.0
same,"herbicidal effect rating, ECHORC",[4]; [30],9.0
same,"herbicidal effect rating, CYPSE",[12]; [23],1.0
same,"herbicidal effect rating, CYPSE",[12]; [24],4.5
same,"herbicidal effect rating, CYPSE",[12]; [25],4.5
same,"herbicidal effect rating, CYPSE",[12]; [26],0.0
